# PMC9456491, “Targeting the Mitochondrial Protein VDAC1 as a Potential Therapeutic Strategy in ALS” (International Journal of Molecular Sciences, 2022)
# Tests used:
# [1] = system: mutant SOD1^G93A transgenic mice; test: SOD1^G93A mouse ALS model, drinking water treatment; assay type: in vivo; conditions: SOD1^G93A female mice, drinking water 0.0625 mg/mL, about 20 mg/kg daily; n = 10; vs DMSO
# Method: (§1) Mutant SOD1^G93A transgenic mice (B6SJL-TgN-SOD1-G93A-1Gur) were obtained from The Jackson Laboratory (Bar Harbor, ME, USA) for the experiments. All experiments were approved by the Animal Care and Use Committee of Ben-Gurion University of the Negev, as required by Israeli legislation, and all efforts were taken to minimize animal suffering.
# VBIT-4 and VBIT-12 were dissolved in DMSO (80 mg/mL) and then diluted in drinking water while being added in a dropwise manner into the acidic water to a final concentration of 0.0625 mg/mL. Considering an estimated daily water consumption of a 25 g mouse as 6–8 mL per mouse, the daily dose of VBIT-4 and VBIT-12 was determined. Assuming a mouse drinks about 8 mL of water daily, it consumed 20 mg/kg of the compound. Control untreated WT mice received water containing DMSO (0.36%) at the final concentration as in VBIT-4 or VBIT-12 drinking solutions. Mutant SOD1^G93A female mice were randomly divided to receive drinking water containing VBIT-4, VBIT-12, or DMSO for the control. Water consumption was verified daily.
# Mean age of disease onset, defined as the time when mice reached peak body weight (A, B), and disease end stage, defined as the time when the mouse could not right itself within 20 s when placed on its side (C, D) of mutant SOD1G93A mice without (control, n = 10, blue) and with treatment of VBIT‐4 (n = 10, red) or VBIT‐12 (n = 10, green) through drinking water. The results are the means ± SD. (E–G) Mean (± SD) duration of early disease (from onset to 10% weight loss) (E), duration of late disease (from 10% weight loss to end stage) (F), and disease progression (from onset to end stage) (G). At each time point, the p‐ value was determined by a Student’s t‐test. Error bars denote SDs. Plot of averaged forelimb (H) and hindlimb (I) grip strength for SOD1G93A female mice untreated (n = 10, blue), treated with VBIT‐4 (n = 10, red), or treated with VBIT‐12 (n = 10, green) through the drinking water. SOD1G93A mice were monitored up to the end stage. The untreated SOD1G93A mice received water with the same concentration of DMSO as controls. At each time point, the p‐value was determined by a Student’s t‐test. Error bars denote SDs.
# Table S1. Antibodies used in the study
# [2] = system: motor-neuron-like NSC-34 cells expressing human SOD1^G93A; test: Viability of NSC-34 cells expressing mutant SOD1^G93A; assay type: cell-based; conditions: NSC-34, human SOD1^G93A; VBIT-12 15 µM, 12 h, 24 h post-transfection; 490 nm; n = 3, means ± SEM
# Method: (§2) Figure 3 VDAC1 oligomerization is increased in mutant SOD1^G93A spinal cord mitochondria. […] A cell viability analysis was performed using the CellTiter 96 AQueous One-Solution cell proliferation assay using a plate reader at 490 nm. (B,C) Spinal cord mitochondria (1 mg/mL) from non-transgenic, SOD1^WT or SOD1^G93A rats were incubated for 10 min at 30 °C in 10 mM Tricine, pH 8.2, with the indicated concentration of the crosslinking reagent EGS (B) or DSP (C). Sample buffer for electrophoresis containing 2-mercaptoethanol, except for DSP (S-S-containing reagent), was added, and the samples were subjected to SDS/PAGE (10% gel) and immunoblot analysis using anti-VDAC1 antibodies. (D,E) Spinal cord mitochondria (1 mg/mL, n = 3) from non-transgenic or SOD1^G93A mice were incubated for 20 min at 30 °C in PBS, pH 8.3, with the indicated concentration of EGS, and subjected to SDS-PAGE (10%), immunoblotting (D), and quantitative analysis (E). (F,G) Spinal cord mitochondria isolated from SOD1^G93A mice were pre-incubated with VBIT-4 (10 min, 20 μM) and subjected to cross linking as described in D. Samples were subjected to SDS/PAGE 4–15% gradient gel and immunoblotting using anti-VDAC1 antibodies (F) and to dimer quantitative analysis (G). VDAC1 dimer levels were quantified using ImageJ software. The positions of VDAC1 monomers, dimers, trimers, tetramers, and higher oligomers are indicated. […]
# [3] = system: VDAC1 oligomerization; conditions: ref [49]; cited from earlier work
# [4] = system: mutant SOD1^G93A transgenic mice; test: SOD1^G93A mouse ALS model, IP treatment; assay type: in vivo
# Method: Mean age of disease onset, defined as the time when mice reached peak body weight as a function of time (A,B), and disease end stage, defined as the time when the mouse could not right itself within 20 s when placed on its side (C,D) considering mutant SOD1^G93A mice IP-injected every second day with 200 µL DMSO 4% (control, n = 10, blue) or with VBIT-12 (26 mg/kg) (n = 10, green). The results are the means ± SD. (E–G) The means ± SD for the duration of early disease (from onset to 10% weight loss) (E), duration of late disease (from 10% weight loss to end stage) (F), and disease progression (from onset to end stage) (G) are presented. Plots of the averaged forelimb (H) and hindlimb (I) grip strength for SOD1^G93A female mice untreated (n = 10, blue) or treated with VBIT-12 (n = 10, green). SOD1^G93A mice were monitored up to the end stage. At each time point, the p-value was determined by Student’s t-test with SD. * p < 0.05; ns, non-significant.
# as §1
# For intraperitoneal (IP) injection, VBIT-12 (80 mg/mL) in DMSO was diluted with saline, pH 7.0, to a final concentration of 3.25 mg/mL. Mice received 200 µL by IP injection resulting in a final VBIT-12 concentration of ~26 mg/Kg. VBIT-12 was IP injected every second day starting from day 60 for 12 weeks, and then the VBIT-12 final concentration was reduced to ~13 mg/Kg. The control group was IP injected with around 200 µL of DMSO (4%).
# [5] = system: VDAC1; set-up: method as in PMID 27738100, PMID 30293774, PMID 31857488, PMID 34217890; conditions: ref [49], [43], [44], [45]; cited from earlier work
# [6] = system: VDAC1; test: VDAC1 oligomerization in spinal cord mitochondria (EGS crosslinking); assay type: biochemical; conditions: spinal cord mitochondria 1 mg/mL from SOD1^G93A mice, VBIT-4 20 μM, 10 min pre-incubation, PBS pH 8.3, 20 min, 30 °C, immunoblot, dimer quantification, n = 3
# Method: as §2
# [7] = system: release of mitochondrial DNA (mtDNA); cGAS/STING; set-up: method as in PMID 34217890; conditions: ref [45]; cited from earlier work
# [8] = system: iPSC-derived motor neurons from ALS patients carrying mutations in TDP-43; set-up: method as in PMID 33031745; conditions: TDP-43 mutations, ref [58]; cited from earlier work
# [9] = system: mice; conditions: mouse, in vivo; cited from earlier work
# From the text: Mutant SOD1^G93A female mice were divided into three groups (10 mice per group): a control group (DMSO), VBIT-4-, and VBIT-12-treated groups.
# [10] = SOD1^G93A female mice, IP 26 mg/kg every other day from day 60, then ~13 mg/Kg, n = 10, during disease progression, Student's t-test
# [11] = SOD1^G93A mice, IP 26 mg/kg every other day from day 60 for 12 weeks, then ~13 mg/Kg, n = 10, vs DMSO 4%
SMILES,disease onset (peak body weight) [1],"muscle endurance, hindlimb grip strength [1]",survival (disease end stage) [1],prevention of mutant SOD1 cell toxicity (cell survival) [2],effect on cells under physiological conditions [3],prevention of VDAC1 oligomerization and apoptotic cell death [3],prevention of cytosolic Ca^2+ elevation and ROS production [3],"forelimb grip (pulling) strength [4, 10]","hindlimb grip (pulling) strength [4, 10]","maintenance of limb muscle strength over time ([4]; SOD1^G93A mice, IP 26 mg/kg every other day from day 60, then ~13 mg/Kg, n = 10, vs DMSO 4%)","disease onset [4, 11]","survival [4, 11]","muscle function and survival (summary) ([4]; SOD1^G93A transgenic mice, ""daily treatment"" as worded in the discussion)",inhibition of VDAC1 conductance [5],inhibition of VDAC1 oligomerization [6],inhibition of mtDNA release and inflammation [7],prevention of cytosolic accumulation of mtDNA and inflammation [8],tolerability [9]
O=C(O)CNC(=O)C1(Nc2ccccc2)CCN(Cc2cccc3ccccc23)CC1 [VBIT-12],no effect on disease onset,some benefit on muscle endurance as measured by grip strength in the hindlimbs,"no effect on disease onset (Figure S3A,B) or survival",partially prevented the mutant SOD1 cell toxicity effect,no effect on cells under physiological conditions,prevent both VDAC1 oligomerization and apoptotic cell death,"prevent VDAC1 oligomerization, and, thereby, apoptosis and apoptosis-associated processes such as cytosolic Ca^2+ elevation and ROS production",significantly greater pulling strength,significantly greater pulling strength,maintained their limb muscle strength for a significantly more extended period of time,"positive tendency in delaying disease onset (Figure 5A,B) and survival of SOD1^G93A mice, although this was not statistically significant","positive tendency in delaying disease onset (Figure 5A,B) and survival of SOD1^G93A mice, although this was not statistically significant","significantly improved muscle function, without extending survival",inhibit VDAC1 conductance,–,–,–,–
O=C(CC(CO)N1CCN(c2ccc(OC(F)(F)F)cc2)CC1)Nc1ccc(Cl)cc1 (stereo not drawn) [VBIT-4],no effect on disease onset,–,"no effect on disease onset (Figure S3A,B) or survival",–,no effect on cells under physiological conditions,prevent both VDAC1 oligomerization and apoptotic cell death,"prevent VDAC1 oligomerization, and, thereby, apoptosis and apoptosis-associated processes such as cytosolic Ca^2+ elevation and ROS production",–,–,–,–,–,–,inhibit VDAC1 conductance,inhibited the oligomerization of VDAC1,inhibit the release of mitochondrial DNA (mtDNA) via preventing VDAC1 oligomerization and inhibiting inflammation,prevented the cytosolic accumulation of mtDNA and inflammation,well tolerated in mice
